Results as given in US20150148369A1, “CHEMICAL SUPPRESSORS OF NEUROTOXICITY IN SYNUCLEINOPATHIC DISEASES” (priority 2012, published 2015).
Several values for one entry are separate records, joined by “and”; a condition that tells them apart may be missing. Equal values may be shown once. Entries after “also recorded” stand apart in the source; their conditions may differ. Read-outs that look alike come from different tables or passages of the source.

What was measured:
aSYN expressing larvae = assay: Larval survival assay in liquid culture; type: in vivo, Drosophila; conditions: for survival: after 4 days in liquid culture, DMSO 14%, untreated 13%
Experimental: (§1) Embryos are collected from transgenic strains and dispensed in 96-well plates containing liquid media culture (200 uL/well). Stock compounds (15, 15×10^−2, 15×10^−5 mM) prepared in DMSO, are diluted 1/10 with media, and then 1 uL of this working reagent is dispensed in culture wells. Percentage survival of mutant and negative control larvae are recorded on day 4 following compound administration. Data are plotted graphically.
as §1, with “Embryos were” for “Embryos are”, “DMSO, were” for “DMSO, are”, “reagent was” for “reagent is”, “Data were” for “Data are”, “plotted graphically with Prism software.” for “plotted graphically.”

[1] = Pharmacokinetic analysis: mass-spec of TPT in postmortem rat brain; type: in vivo; conditions: osmotic pump into third ventricle, 37.4 ug/h
Source text: On Day 1 of Week 3, rats were fitted with osmotic mini-pumps to administer TPT to the third ventricle. Intracerebral administration was chosen to maximize the amount of drug given to the brain and minimize side effects in peripheral tissues. Using standard stereotaxic procedures, a 22-gauge guide cannula (Plastics One, Roanoake, Va.) was placed into the third ventricle (AP, −1.3 mm, ML, +0.0 mm; DV −4.6 mm with respect to bregma) of isoflurane/oxygen anesthetized rats, and anchored with dental acrylic. Rats were bilaterally infused with TPT or vehicle using a mini-osmotic pulp (Alzet model 2ML2 pump, flow rate 5.0 uL/hr, Durect Corp. Cupertino) to the third ventricle, which was delivered for 2 weeks. The pumps were filled with 16.34 mM topotecan (TPT) (CPT06, Molcan Corporation) in 50 mM tartaric acid with 0.9% saline (delivered at 37.4 μg/h), or vehicle control alone. Upon cessation of drug on Day 7 of Week 4 or at some other time point, rats were sacrificed by an overdose of pentobarbital (1.0 mL of 240 mg/mL, i.p.) and exsanguinated by transcardial saline perfusion followed by 4% paraformaldehyde.
Postmortem brain samples were subjected to standard quadrupole mass […] analysis to determine brain penetration of TPT into tissue samples.

[2] = tested on: primary neurons expressing human mutant aSYN A30P; assay: Primary neuronal culture, neurite morphology (Cellomics ArrayScan); type: cell-based, Drosophila; conditions: for neurite length and branching in images vs DMSO controls: 60 nM, FIG. 1B, 1C
Experimental: Primary cell cultures are prepared from mid-gastrula stage embryos as described previously (Sepp et al., 2008). Briefly, embryos are collected on agar media plates and dechorionated in 50% bleach for 4 min., followed by rinsing with sterile distilled water. Embryos are homogenized in Shields and Sang M3 media (Sigma) in a Dounce homogenizer, and debris are pelleted by centrifugation at 40 g for 10 min and then 5 min. Neuroblasts are pelleted by centrifugation at 380G for 10 min. Cells are resuspended at 1×10^6 cells/mL in Shields and Sang M3 media supplemented with 10 U/mL penicillin, 10 ug/mL streptomycin, and 200 ng/mL insulin, and plated on 384-well plates (Corning) at 50 uL/well. Cells are incubated at 21° C. Compound is applied 24 hrs after cells are plated. Stock compounds (15 mM) and log dilutions (10^−1, 10^−2, 10^−3, 10^−4, and 10^−5) are prepared in DMSO, then each stock is further diluted 1/10 with media, and 1 uL of this working reagent is applied to culture wells. Cultures are matured for 7 days. Cultures are fixed and stained as described previously (Halter et al., 1995), using pan-neuronal marker anti-elav (1:10, Developmental Studies Hybridoma Bank), and anti-human aSYN (1:1000, Abeam), and dopaminergic neuron marker anti-tyrosine hydroxylase (1:1000, Millipore). Cultures are imaged on a Cellomics robotic fluorescence microscope, and morphologies are quantified with Cellomics ArrayScan algorithms and statistically processed with Prism software.
Primary cell cultures were prepared from mid-gastrula stage embryos as described previously (Sepp et al., 2008). Briefly, embryos are collected on agar media plates and dechorionated in 50% bleach for 4 min., followed by rinsing with sterile distilled water. Embryos were homogenized in Shields and Sang M3 media (Sigma) in a Dounce homogenizer, and debris pelleted by centrifugation at 40 g for 10 min and then 5 min. Neuroblasts were pelleted by centrifugation at 380G for 10 min. Cells were resuspended at 1×10^6 cells/mL in Shields and Sang M3 media supplemented with 10 U/mL penicillin, 10 ug/mL streptomycin, and 200 ng/mL insulin, and plated on 384-well plates (Corning) at 50 uL/well. Cells were incubated at 21° C. Compound was applied 24 hrs after cells were plated. Stock compounds (15 mM) and log dilutions (10^−1, 10^−2, 10^−3, 10^−4, and 10^−5) were prepared in DMSO, then each stock was further diluted 1/10 with media, and 1 uL of this working reagent was applied to culture wells. Cultures were matured for 7 days. Cultures were fixed and stained as described previously (Halter et al., 1995), using pan-neuronal marker anti-GFP (1:1000, Life Technologies), and anti-human aSYN (1:1000, Abcam). Cultures were imaged on a Cellomics robotic fluorescence microscope, and morphologies are quantified with Cellomics ArrayScan algorithms and statistically processed with Prism software.

[3] = tested on: human mutant aSYN (AAV1/2 A53T α-Synuclein); assay: Quantitative immunoblot of aSYN in AAV-aSYN rat model of Parkinson's disease; type: in vivo; conditions: 37.4 ug/h into third ventricle; for aSYN protein levels in postmortem rat brain immunoblots: TPT vs vehicle
Source text: An AAV 1/2-aSYN A53T vector delivery-based over-expression of aSYN in the rat substantia nigra was chosen to model PD synucleinopathy, since it replicates progressive nigrostriatal degeneration and basal ganglia-based motor features of PD better than existing stable transgenic models. Furthermore, time of symptom onset is far more predictable, thus reducing experimental noise. Viral vectors will be delivered as using stereotactic injection. Briefly, 20 Sprague Dawley rats (280 g, Charles River) were injected with AAV 1/2-aSYN A53T to the experimental hemisphere (right) and AAV1/2-GFP to the control hemisphere (left) using standard stereotaxic procedures and isoflurane/oxygen anesthesia. Vector (2 μL) was delivered by microinjector (Stoelting, Kiel, Wis.) at 0.2 μL/min with coordinates from Bregma: AP, −5.2 mm; ML, −2.0 mm; DV, −7.5 mm. Viral stock concentrations for both AAV1/2 GFP and AAV1/2-aSYN A53T were 1.7×10^12 gp/mL. Animals were housed in pairs at 20° C. with a 12 hr light/dark cycle with food and water ad libitum. Animals recovered were maintained with regular care for 3 weeks as viral gene expression of aSYN built to emerging pathological levels as characterized previously.
On Day 1 of Week 3, rats were fitted with osmotic mini-pumps to administer TPT to the third ventricle. Intracerebral administration was chosen to maximize the amount of drug given to the brain and minimize side effects in peripheral tissues. Using standard stereotaxic procedures, a 22-gauge guide cannula (Plastics One, Roanoake, Va.) was placed into the third ventricle (AP, −1.3 mm, ML, +0.0 mm; DV −4.6 mm with respect to bregma) of isoflurane/oxygen anesthetized rats, and anchored with dental acrylic. […]
Standard Western blot techniques are used on dissected postmortem tissues to determine if aSYN levels decrease in response to TPT treatment. […] Blots are imaged on an Odyssey Quantitative Fluorescence Imaging System. Two-tailed student's t-test is used Western blot quantifications.

gap junction = conditions: cited from earlier work
[4] = tested on: polyglutamine-expanded Huntingtin protein; conditions: cited from earlier work; for polyglutamine protein aggregation: Huntington's disease (HD) model
[5] = in vivo, cited from earlier work
HSD1 = HSD1 (Mus musculus, UniProt P50172); conditions: i.p. 20 mg/kg, every other day for 2 months; cited from earlier work
Chain of HSD1 (P50172 whole entry): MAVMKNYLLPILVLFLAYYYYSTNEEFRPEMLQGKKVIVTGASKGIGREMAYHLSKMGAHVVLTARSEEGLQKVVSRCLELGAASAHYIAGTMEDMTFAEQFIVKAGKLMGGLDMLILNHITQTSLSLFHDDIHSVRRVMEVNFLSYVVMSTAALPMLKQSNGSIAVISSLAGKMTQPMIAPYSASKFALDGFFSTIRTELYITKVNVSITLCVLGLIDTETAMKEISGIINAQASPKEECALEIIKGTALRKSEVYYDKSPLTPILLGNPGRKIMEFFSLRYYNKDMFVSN

C[C@@H](CN1CC(=O)NC(=O)C1)N1CC(=O)NC(=O)C1 [dexrazoxane, Dexrazoxane]
survival (aSYN expressing larvae; 'med' dose 0.15 uM, n=9): 75% | survival compared to DMSO vehicle-treated controls (aSYN expressing larvae; medium dose 0.15 uM): improved survival

CC[C@@]1(O)C(=O)OCc2c1cc1n(c2=O)Cc2cc3c(CN(C)C)c(O)ccc3nc2-1 [topotecan]
average TPT brain level of three rats [1]: 2725 ng TPT/g tissue | TPT level in cortex, single rats ([1]; n=3 rats, listed as TPT): 6809 ng TPT/g tissue and 967 ng TPT/g tissue and 399 ng TPT/g tissue | neurite outgrowth vs DMSO control ([2]; 30 nM, FIG. 1D): improved neurite outgrowth | neurite length and branching in images vs DMSO controls [2]: longer neurites and reduced neuritic branching | aSYN protein levels in postmortem rat brain immunoblots [3]: reduced aSYN protein levels; also recorded: inverse relationship | aSYN protein levels in postmortem rat brain immunoblots ([3]; listed as TPT): reduced in the TPT treatment with a dose-dependent trend | reduction in aSYN normalized to beta-Actin vs vehicle control ([3]; three rats, average 2725 ng TPT/g tissue): ~2 fold

CC[C@@]1(O)C(=O)OCc2c1cc1n(c2=O)Cc2cc3cc(O)ccc3nc2-1 [camptothecin-OH, 10-hydroxy-camptothecin]
neurite morphology profiles (image features) vs DMSO negative control ([2]; 30 nM): improved neurite morphology profiles | neurite outgrowth vs DMSO control ([2]; 30 nM, FIG. 1D): improved neurite outgrowth | total neurite length per well ([2]; 30 nM, Mean±SEM, n=4, DMSO vehicle 15240±799.8 (n=18), P<0.05, FIG. 1D): 20170±1430 um | survival (aSYN expressing larvae; 'hi' dose 15 uM, n=5): 100% | survival compared to DMSO vehicle-treated controls (aSYN expressing larvae; high dose 15 uM): improved survival

CC1(C)[C@@H](OC(=O)CCC(=O)O)CC[C@]2(C)[C@H]3C(=O)C=C4[C@@H]5C[C@@](C)(C(=O)O)CC[C@]5(C)CC[C@@]4(C)[C@]3(C)CC[C@@H]12 [carbenoxolone, (3β)-3-[(3-carboxy-propanoyl)oxy]-11-oxoolean-12-en-30-oic acid]
gap junction blocking activity (gap junction): have gap junction blocking activity | polyglutamine protein aggregation [4]: protect against polyglutamine protein aggregation | lifespan and motor control ([4]; early dosing): extend Drosophila HD model lifespan and improves motor control | rescue of toxicity of polyglutamine-expanded Huntingtin protein ([4]; in vivo, Drosophila): in vivo rescue of toxicity | crossing of the blood-brain-barrier ([5]; concentrations needed for gap junction block): do not cross the blood-brain-barrier at high enough concentrations | inhibition of target enzyme HSD1 (HSD1): effective at inhibiting the target enzyme HSD1 | neurite morphology profiles (image features) vs DMSO negative control ([2]; 30 nM): improved neurite morphology profiles | excessive branching vs DMSO vehicle controls ([2]; 30 nM, FIG. 1E): reduces the excessive branching phenotype; also recorded: reduced excessive branching | total branches per well ([2]; 30 nM, Mean±SEM, n=4, DMSO vehicle 4.416±0.2622 (n=16), P<0.05, FIG. 1E): 3.198±0.1825 | neurite length and branching in images vs DMSO controls [2]: longer neurites and reduced neuritic branching

CC1(C)[C@@H](O)CC[C@]2(C)[C@H]3C(=O)C=C4[C@@H]5C[C@@](C)(C(=O)O)CC[C@]5(C)CC[C@@]4(C)[C@]3(C)CC[C@@H]12 [18β-glycyrrhetinic acid]
gap junction blocking activity (gap junction): have gap junction blocking activity | polyglutamine protein aggregation [4]: protect against polyglutamine protein aggregation | crossing of the blood-brain-barrier [5]: do not cross the blood-brain-barrier at high enough concentrations
